Experimental data: patent US20110190127A1, “NOVEL HERBICIDES” (SYNGENTA CROP PROTECTION, INC., priority 2008, published 2011)

Legend:
Format in all cases: in vivo
[1] = test system: Alopecurus myosuroides (ALOMY); test: Pre-emergence herbicidal activity, glasshouse pot test; details: Rate 500 g/ha; sprayed after one day cultivation, evaluated 20 days later; 100=total damage to plant, 0=no damage to plant
Description: (§1) Monocotyledonous and dicotyledonous test plants were sown in standard soil in pots. After cultivation for one day (pre-emergence) or after 10 days cultivation (post-emergence) under controlled conditions in a glasshouse, the plants were sprayed with an aqueous spray solution derived from the formulation of the technical active ingredient in 0.6 ml acetone and 45 ml formulation solution containing 10.6% Emulsogen EL (Registry number 61791-12-6), 42.2% N-methyl pyrrolidone, 42.2% dipropylene glycol monomethyl ether (Registry number 34590-94-8) and 0.2% X-77 (Registry number 11097-66-8). The test plants were then grown in a greenhouse under optimum conditions until, 15 days later for post-emergence and 20 days for pre-emergence, the test was evaluated (100=total damage to plant; 0=no damage to plant). Test Plants: Alopecurus myosuroides (ALOMY), Avena fatua (AVEFA), Lolium perenne (LOLPE), Setaria faberi (SETFA), Digitaria sanguinalis (DIGSA), Echinochloa crus-galli (ECHCG)

[2] = test system: Avena fatua (AVEFA); test: as above; details: Rate 500 g/ha; sprayed after one day cultivation, evaluated 20 days later; 100=total damage to plant, 0=no damage to plant
Description: as §1

[3] = test system: Digitaria sanguinalis (DIGSA); test: as above; details: Rate 500 g/ha; sprayed after one day cultivation, evaluated 20 days later; 100=total damage to plant, 0=no damage to plant
Description: as §1

[4] = test system: Echinochloa crus-galli (ECHCG); test: as above; details: Rate 500 g/ha; sprayed after one day cultivation, evaluated 20 days later; 100=total damage to plant, 0=no damage to plant
Description: as §1

[5] = test system: Lolium perenne (LOLPE); test: as above; details: Rate 500 g/ha; sprayed after one day cultivation, evaluated 20 days later; 100=total damage to plant, 0=no damage to plant
Description: as §1

[6] = test system: Setaria faberi (SETFA); test: as above; details: Rate 500 g/ha; sprayed after one day cultivation, evaluated 20 days later; 100=total damage to plant, 0=no damage to plant
Description: as §1

[7] = test system: Alopecurus myosuroides (ALOMY); test: Post-emergence herbicidal activity, glasshouse pot test; details: Rate 500 g/ha; sprayed after 10 days cultivation, evaluated 15 days later; 100=total damage to plant, 0=no damage to plant
Description: as §1

[8] = test system: Avena fatua (AVEFA); test: as above; details: Rate 500 g/ha; sprayed after 10 days cultivation, evaluated 15 days later; 100=total damage to plant, 0=no damage to plant
Description: as §1

[9] = test system: Digitaria sanguinalis (DIGSA); test: as above; details: Rate 500 g/ha; sprayed after 10 days cultivation, evaluated 15 days later; 100=total damage to plant, 0=no damage to plant
Description: as §1

[10] = test system: Echinochloa crus-galli (ECHCG); test: as above; details: Rate 500 g/ha; sprayed after 10 days cultivation, evaluated 15 days later; 100=total damage to plant, 0=no damage to plant
Description: as §1

[11] = test system: Lolium perenne (LOLPE); test: as above; details: Rate 500 g/ha; sprayed after 10 days cultivation, evaluated 15 days later; 100=total damage to plant, 0=no damage to plant
Description: as §1

[12] = test system: Setaria faberi (SETFA); test: as above; details: Rate 500 g/ha; sprayed after 10 days cultivation, evaluated 15 days later; 100=total damage to plant, 0=no damage to plant
Description: as §1

SMILES | Pre-Emergence Activity ALOMY [1] | Pre-Emergence Activity AVEFA [2] | Pre-Emergence Activity DIGSA [3] | Pre-Emergence Activity ECHCG [4] | Pre-Emergence Activity LOLPE [5] | Pre-Emergence Activity SETFA [6] | Post-Emergence Activity ALOMY [7] | Post-Emergence Activity AVEFA [8] | Post-Emergence Activity DIGSA [9] | Post-Emergence Activity ECHCG [10] | Post-Emergence Activity LOLPE [11] | Post-Emergence Activity SETFA [12]
CCc1ccc(-c2ccc(Cl)cc2Cl)cc1C1=C(SC)C(C)(C)OC(C)(C)C1=O [Compound A2] | 0 | 0 | 20 | 20 | 20 | 10 | 0 | 0 | 0 | 20 | 0 | 10
CCc1ccc(-c2ccc(Cl)cc2Cl)cc1C1=C(Cl)C(C)(C)OC(C)(C)C1=O [Compound A1] | 10 | 0 | 70 | 0 | 20 | 0 | 40 | 50 | 100 | 100 | 60 | 60
